{"source": "patent US10328066B2", "about": "“Pharmaceutical combination comprising the PI3K inhibitor alpelisib and the CDK4/6 inhibitor ribociclib, and the use thereof in the treatment/prevention of cancer” (Novartis AG, priority 2015, dated 2019)", "assay_type_in_all_cases": "cell-based", "key": {"[1]": {"test_system": "15 colorectal cancer cell lines", "experiment": "In vitro proliferation, summary over the cell line panel", "conditions": "single agents", "protocol": "(§1) COMPOUNDS A, B, and C were dissolved in 100% DMSO (Sigma, Catalog number D2650) at concentrations of 20 mM and stored at −20° C. until use. Compounds were arrayed in drug master plates (Greiner, Catalog number 788876) and serially diluted 3-fold (7 steps) at 2000× concentration.\n(§2) Colorectal cancer cell lines used for this study were obtained, cultured and processed from commercial vendors ATCC, CellBank Australia, DMSZ, ECACC, and HSRRB (Table 1). All cell line media were supplemented with 10% FBS (HyClone, Catalog number SH30071.03). Media for LIM2551 was additionally supplemented with 0.6 μg/mL Insulin (SIGMA, Catalog number 19278), 1 μg/mL Hydrocortisone (SIGMA, Catalog number H0135), and 10 μM 1-Thioglycerol (SIGMA, Catalog number M6145).\n(§3) Cell lines were cultured in 37° C. and 5% CO2 incubator and expanded in T-75 flasks. In all cases cells were thawed from frozen stocks, expanded through ≥1 passage using 1:3 dilutions, counted and assessed for viability using a ViCell counter (Beckman-Coulter) prior to plating. To split and expand cell lines, cells were dislodged from flasks using 0.25% Trypsin-EDTA (GIBCO, Catalog number 25200). All cell lines were determined to be free of mycoplasma contamination as determined by a PCR detection methodology performed at Idexx Radil (Columbia, Mo., USA) and correctly identified by detection of a panel of SNPs.\nTo test the effect of the combination of COMPOUND A, COMPOUND B, and COMPOUND C on cell proliferation cells were plated in black 384-well microplates with clear bottom (Matrix/Thermo Scientific, Catalog number 4332) in 50 μL media per well at cell densities between 500 and 1250 cells/well (Table 1) and allowed to incubate at 37 degrees, 5% CO2 for 24 h. […] Caspase 3/7 induction was measured as a proxy for apoptosis induced by the treatments. Cells were treated for 72 h to 96 h depending on their doubling time (Table 1), and Caspase 3/7 activation was measured every 24 h by microscopy using an InCell Analyzer 2000 (GE Healthcare) equipped with a 4× objective and FITC excitation/emission filters. […]"}, "[2]": {"test_system": "COLO-205", "experiment": "In vitro proliferation (cell count by microscopy), single agents and combination", "conditions": "Homo sapiens; COLO-205 (BRAF), 72 h treatment; 50% of cell counts relative to DMSO", "protocol": "as §1, §2, §3\n(§4) To test the effect of the combination of COMPOUND A, COMPOUND B, and COMPOUND C on cell proliferation cells were plated in black 384-well microplates with clear bottom (Matrix/Thermo Scientific, Catalog number 4332) in 50 μL media per well at cell densities between 500 and 1250 cells/well (Table 1) and allowed to incubate at 37 degrees, 5% CO2 for 24 h. After 24 h one 384-well plate per cell line was prepared for cell counting by microscopy (see below) without receiving treatment (=‘baseline’). The other cell plates were treated by transferring 25 nL of the 2000× compound from drug master plates using an ATS acoustic liquid dispenser (ECD Biosystems) and resulting in a final 1× concentration. COMPOUND A was used over a final concentration range of 13 nM-10 μM, COMPOUND B was used over a final concentration range of 13 nM-10 μM, and COMPOUND C was used over a final concentration range of 27 nM-20 μM (7 1:3 dilution steps). In order to assess the effect of the triple combination all individual COMPOUNDS (A, B, C), all three pair wise combinations (A+B, A+C, B+C), and the triple combination (A+B+C) were tested in the same experiment. Pair wise combinations and the triple combination were tested at a fixed ratio of 1:1 (for drug pairs) and 1:1:1 (for the drug triple) at each dilution resulting in 7 combination conditions per treatment. […] After compound addition 50 nL of 2 mM CellEvent Caspase-3/7 Green Detection Reagent (ThermoFisher, Catalog number C10423) were added to one of the three replicates using the HP D300 Digital Dispenser (Tecan). Caspase 3/7 induction was measured as a proxy for apoptosis induced by the treatments. Cells were treated for 72 h to 96 h depending on their doubling time (Table 1), and Caspase 3/7 activation was measured every 24 h by microscopy using an InCell Analyzer 2000 (GE Healthcare) equipped with a 4× objective and FITC excitation/emission filters. At the end of the treatment cells were prepared for cell counting by microscopy. Cells were fixed and permeabilised for 45 minutes in 4% PFA (Electron Microscopy Sciences, Catalog number 15714), 0.12% TX-100 (Electron Microscopy Sciences, Catalog number 22140) in PBS (Boston Bioproducts, Catalog number BM-220). After washing cells three times with PBS their DNA was stained for 30 minutes with Hoechst 33342 (ThermoFisher, Catalog number H3570) at a final concentration of 4 μg/mL. Cells were washed three times with PBS and then plates were heat-sealed using a PlateLoc (Agilent Technologies) with aluminum seals (Agilent Technologies, Catalog number 06644-001) and stored at 4° C. until imaging. […]"}, "[3]": {"test_system": "LoVo", "experiment": "In vitro proliferation (cell count by microscopy), single agents and combination", "conditions": "Homo sapiens; LoVo (KRAS), 96 h treatment; 50% of cell counts relative to DMSO", "protocol": "as §1, §2, §3, §4"}, "[4]": {"test_system": "SW837", "experiment": "In vitro proliferation (cell count by microscopy), single agents and combination", "conditions": "Homo sapiens; SW837 (KRAS), 72 h treatment; 50% of cell counts relative to DMSO", "protocol": "as §1, §2, §3, §4"}, "[5]": {"test_system": "LS-180", "experiment": "In vitro proliferation (cell count by microscopy), single agents and combination", "conditions": "Homo sapiens, LS180; LS-180 (KRAS, PIK3CA), 72 h treatment; 50% of cell counts relative to DMSO", "protocol": "as §1, §2, §3, §4"}, "[6]": {"test_system": "NCI-H508", "experiment": "In vitro proliferation (cell count by microscopy), single agents and combination", "conditions": "Homo sapiens; NCI-H508 (PIK3CA), 72 h treatment; 50% of cell counts relative to DMSO", "protocol": "as §1, §2, §3, §4"}, "[7]": {"test_system": "DLD-1", "experiment": "In vitro proliferation (cell count by microscopy), single agents and combination", "conditions": "Homo sapiens; DLD-1 (KRAS, PIK3CA), 72 h treatment; 50% of cell counts relative to DMSO", "protocol": "as §1, §2, §3, §4"}, "[8]": {"test_system": "LS411N", "experiment": "In vitro proliferation (cell count by microscopy), single agents and combination", "conditions": "Homo sapiens, LS-411N; LS411N (BRAF), 72 h treatment; 50% of cell counts relative to DMSO", "protocol": "as §1, §2, §3, §4"}, "[9]": {"test_system": "SW480", "experiment": "In vitro proliferation (cell count by microscopy), single agents and combination", "conditions": "Homo sapiens; SW480 (KRAS), 72 h treatment; 50% of cell counts relative to DMSO", "protocol": "as §1, §2, §3, §4"}, "[10]": {"test_system": "HT-29", "experiment": "In vitro proliferation (cell count by microscopy), single agents and combination", "conditions": "Homo sapiens; HT-29 (BRAF, PIK3CA), 72 h treatment; 50% of cell counts relative to DMSO", "protocol": "as §1, §2, §3, §4"}, "[11]": {"test_system": "RKO", "experiment": "In vitro proliferation (cell count by microscopy), single agents and combination", "conditions": "Homo sapiens; RKO (BRAF, PIK3CA), 72 h treatment; 50% of cell counts relative to DMSO", "protocol": "as §1, §2, §3, §4"}, "[12]": {"test_system": "LIM2551", "experiment": "In vitro proliferation (cell count by microscopy), single agents and combination", "conditions": "LIM2551 (BRAF, PIK3CA), 72 h treatment; 50% of cell counts relative to DMSO", "protocol": "as §1, §2, §3, §4"}, "[13]": {"test_system": "OUMS-23", "experiment": "In vitro proliferation (cell count by microscopy), single agents and combination", "conditions": "OUMS-23 (BRAF), 72 h treatment; 50% of cell counts relative to DMSO", "protocol": "as §1, §2, §3, §4"}, "[14]": {"test_system": "HCT-116", "experiment": "In vitro proliferation (cell count by microscopy), single agents and combination", "conditions": "Homo sapiens; HCT-116 (KRAS, PIK3CA), 72 h treatment; 50% of cell counts relative to DMSO", "protocol": "as §1, §2, §3, §4"}, "[15]": {"test_system": "GP2d", "experiment": "In vitro proliferation (cell count by microscopy), single agents and combination", "conditions": "GP2d (KRAS, PIK3CA), 72 h treatment; 50% of cell counts relative to DMSO", "protocol": "as §1, §2, §3, §4"}, "[16]": {"test_system": "COLO-320", "experiment": "In vitro proliferation (cell count by microscopy), single agents and combination", "conditions": "Homo sapiens; COLO-320 (no driver mutation listed), 72 h treatment; 50% of cell counts relative to DMSO", "protocol": "as §1, §2, §3, §4"}}, "data": [{"smiles": "Cc1nc(NC(=O)N2CCC[C@H]2C(N)=O)sc1-c1ccnc(C(C)(C)C(F)(F)F)c1", "note": "[COMPOUND A, (S)-Pyrrolidine-1,2-dicarboxylic acid 2-amide 1-({4-methyl-5-[2-(2,2,2-trifluoro-1,1-dimethyl-ethyl)-pyridin-4-yl]-thiazol-2-yl}-amide)]", "values": [{"measurement": "IC50 values across the cell lines (summary in words)", "setting": "[1]", "result": "mostly micromolar IC50 values"}]}, {"smiles": "CN(C)C(=O)c1cc2cnc(Nc3ccc(N4CCNCC4)cn3)nc2n1C1CCCC1", "note": "[COMPOUND B, 7-Cyclopentyl-2-(5-piperazin-1-yl-pyridin-2-ylamino)-7H-pyrrolo[2,3-d]pyrimidine-6-carboxylic acid dimethylamide]", "values": [{"measurement": "IC50 values across the cell lines (summary in words)", "setting": "[1]", "result": "mostly micromolar IC50 values"}]}, {"smiles": "O=c1[nH]cc(F)c(=O)[nH]1", "note": "[COMPOUND C, 5-fluoro-2,4-(1H,3H) pyrimidinedione]", "values": [{"measurement": "IC50 values across the cell lines (summary in words)", "setting": "[1]", "result": "micromolar IC50s in all but one cell line (SW480)"}, {"measurement": "IC50", "setting": "[2]", "result": 0.6, "unit": "µM"}, {"measurement": "IC50", "setting": "[3]", "result": 5.6, "unit": "µM"}, {"measurement": "IC50", "setting": "[4]", "result": 7.7, "unit": "µM"}, {"measurement": "IC50", "setting": "[5]", "result": 14, "unit": "µM"}, {"measurement": "IC50", "setting": "[6]", "result": 3.3, "unit": "µM"}, {"measurement": "IC50", "setting": "[7]", "result": 6.6, "unit": "µM"}, {"measurement": "IC50", "setting": "[8]", "result": 4.1, "unit": "µM"}, {"measurement": "IC50", "setting": "[9]", "result": "> 20", "unit": "µM"}, {"measurement": "IC50", "setting": "[10]", "result": 7.4, "unit": "µM"}, {"measurement": "IC50", "setting": "[11]", "result": 2.1, "unit": "µM"}, {"measurement": "IC50", "setting": "[12]", "result": 4.2, "unit": "µM"}, {"measurement": "IC50", "setting": "[13]", "result": 10.4, "unit": "µM"}, {"measurement": "IC50", "setting": "[14]", "result": 5.6, "unit": "µM"}, {"measurement": "IC50", "setting": "[15]", "result": 3.2, "unit": "µM"}, {"measurement": "IC50", "setting": "[16]", "result": 2.4, "unit": "µM"}]}]}
